Experimental data from patent US8399459B2, “1,4 oxazines as BACE1 and/or BACE2 inhibitors” (Hoffmann-La Roche Inc., priority 2011, dated 2013).

Experiments:
[1] = biological target: T1, CYP2C9 (Homo sapiens, UniProt P11712); assay: CYP inhibition assay, human liver microsomes, diclofenac 4′hydroxylase; format: in vitro ADME; details: pooled human liver microsomes, read-out: CYP IC50 2C9
T1 construct: 0.2 mg/ml pooled human liver microsomes; from tissue; host or cells: pooled human liver microsomes
Experimental: (§1) Inhibition of cytochromes P450 (CYPs) 2C9, 2D6 and 3A4 was assessed using human liver microsomes and CYP-selective substrate metabolism reactions. 50 μl incubations were made up containing (finally) 0.2 mg/ml pooled human liver microsomes, 5 μM substrate (diclofenac for CYP2C9 [4′hydroxylase], dextromethorphan for CYP2D6 [O-demethylase] or midazolam for CYP3A4 [1′hydroxylase]), 0.25 μL DMSO containing test inhibitor and NADPH regenerating system. Test inhibitor concentrations of 50, 16.7, 5.6, 1.9, 0.6 and 0.2 μM were assessed in singlicate. Incubations were prewarmed to 37° C. for 10 minutes before initiation by addition of NADPH regenerating system. Incubations were quenched after 5 minutes (20 minutes for dextromethorphan) by addition of 50 μl cold acetonitrile containing 20 ng/ml 4-OH-diclofenac-13C6, 20 ng/mL dextrorphan-D3 and 20 ng/mL 1-OH-midazolam-D4. Quenched incubates were stored at −20° C. for at least 1 hour before centrifugation (20,000×g, 20 minutes). Supernatants were removed and diluted 1:1 with water prior to analysis using a RapidFire sample injector system and API4000 mass spectrometer. Peak areas for substrate, metabolite and stable-labelled metabolite standard were determined using MS/MS. The peak area ratios between the metabolite generated by the enzymatic reaction and the internal standard were used in subsequent calculations. The percentage of (DMSO) control activity was calculated for each incubate and IC50 values estimated by non-linear regression. Sulfaphenazole, quinidine or ketoconazole were tested in each CYP2C9, CYP2D6 or CYP3A4 inhibition experiment, respectively, to ensure assay sensitivity and reproducibility. (Validated assays for human cytochrome P450 activities, R. L. Walsky and R. S. Obach, Drug Metabolism and Disposition 32: 647-660, 2004. and S. Fowler and H. Zhang, The AAPS Journal, Vol. 10, No. 2, 410-424, 2008.)

[2] = biological target: T2, BACE2 (Rattus norvegicus, UniProt Q6IE75); assay: Assay for BACE inhibition by measuring cellular TMEM27 cleavage (INS-TMEM27 cells, ELISA); format: cell-based; details: INS-TMEM27 (INS1e-derived) cells; shed TMEM27 by ELISA
T2 construct: endogenous cellular BACE2 in the Ins1e rat cell line; endogenous in cells; host or cells: INS-TMEM27 (INS1e-derived rat cell line with doxycycline-inducible full-length human TMEM27)
T2 sequence (Q6IE75 63-514): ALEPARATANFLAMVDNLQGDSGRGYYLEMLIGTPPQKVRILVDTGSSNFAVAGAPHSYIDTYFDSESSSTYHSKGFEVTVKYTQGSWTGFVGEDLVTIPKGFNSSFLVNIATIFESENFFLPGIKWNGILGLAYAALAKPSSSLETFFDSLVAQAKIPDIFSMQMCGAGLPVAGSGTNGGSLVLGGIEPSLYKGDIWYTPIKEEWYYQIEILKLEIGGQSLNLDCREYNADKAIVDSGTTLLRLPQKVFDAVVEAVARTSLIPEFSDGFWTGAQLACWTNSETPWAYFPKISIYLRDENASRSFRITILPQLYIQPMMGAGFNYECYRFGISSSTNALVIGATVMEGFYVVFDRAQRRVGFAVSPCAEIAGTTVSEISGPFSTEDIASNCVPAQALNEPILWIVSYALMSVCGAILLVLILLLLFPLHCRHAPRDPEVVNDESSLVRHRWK
Source text: Assay for BACE Inhibition by Measuring Cellular TMEM27 Cleavage:
The assay uses the principle of inhibition of human TMEM27 cleavage by endogenous cellular BACE2 in the Ins1e rat cell line and shedding from the cell surface into the culture medium, followed by detection in an ELISA assay. Inhibition of BACE2 prevents the cleavage and shedding in a dose-dependent manner.
The stable cell line “INS-TMEM27” represents an INS1e-derived cell line with inducible expression (using the TetOn system) of full-length hTMEM27 in a doxycycline-dependent manner. The cells are cultured throughout the experiment in RPMI1640+Glutamax (Invitrogen) Penicillin/Streptomycin, 10% Fetal bovine serum, […], […], 100 micrograms/ml G418 and 100 microgram/ml hygromycin and are grown inadherent culture at 37° C. in a standard CO2 cell culture incubator.
INS-TMEM27 cells are seeded in 96-well plates. After 2 days in culture, BACE2 inhibitor is added in a range of concentrations as required by the assay and after a further two hours, doxycycline is added to a final concentration of 500 ng/ml. The cells are incubated for a further 46 hours and the supernatant harvested for detection of shed TMEM27.
An ELISA assay (using a pair of mouse anti-human-TMEM27 antibodies, raised against the extracellular domain of TMEM27) is used for detection of TMEM27 in the culture medium. An EC50 for BACE2 inhibition is calculated using the ELISA readout for each inhibitor concentration with standard curve-fitting software such as XLFit for the Excel spreadsheet program.

[3] = biological target: T3, CYP2D6 (Homo sapiens, UniProt P10635); assay: CYP inhibition assay, human liver microsomes, dextromethorphan O-demethylase; format: in vitro ADME; details: pooled human liver microsomes, read-out: CYP IC50 2D6
T3 construct: 0.2 mg/ml pooled human liver microsomes; from tissue; host or cells: pooled human liver microsomes
Experimental: as §1

[4] = biological target: T4, CYP3A4 (Homo sapiens, UniProt P08684); assay: CYP inhibition assay, human liver microsomes, midazolam 1′hydroxylase; format: in vitro ADME; details: pooled human liver microsomes, read-out: CYP IC50 3A4
T4 construct: 0.2 mg/ml pooled human liver microsomes; from tissue; host or cells: pooled human liver microsomes
Experimental: as §1

T3 sequence (P10635 whole entry): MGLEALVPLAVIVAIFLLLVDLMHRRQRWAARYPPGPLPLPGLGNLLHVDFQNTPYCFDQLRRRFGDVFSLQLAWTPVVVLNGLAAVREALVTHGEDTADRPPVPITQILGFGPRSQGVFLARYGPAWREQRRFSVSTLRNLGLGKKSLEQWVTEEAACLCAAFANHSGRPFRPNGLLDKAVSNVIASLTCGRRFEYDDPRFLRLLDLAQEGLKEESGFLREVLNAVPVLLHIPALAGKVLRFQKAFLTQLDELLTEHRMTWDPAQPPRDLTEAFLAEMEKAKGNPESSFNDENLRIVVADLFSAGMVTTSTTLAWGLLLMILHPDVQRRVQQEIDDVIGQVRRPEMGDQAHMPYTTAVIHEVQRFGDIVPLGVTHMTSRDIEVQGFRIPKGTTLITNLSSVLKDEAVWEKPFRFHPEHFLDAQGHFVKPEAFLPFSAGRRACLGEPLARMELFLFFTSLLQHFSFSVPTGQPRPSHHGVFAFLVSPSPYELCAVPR
T1 sequence (P11712 whole entry): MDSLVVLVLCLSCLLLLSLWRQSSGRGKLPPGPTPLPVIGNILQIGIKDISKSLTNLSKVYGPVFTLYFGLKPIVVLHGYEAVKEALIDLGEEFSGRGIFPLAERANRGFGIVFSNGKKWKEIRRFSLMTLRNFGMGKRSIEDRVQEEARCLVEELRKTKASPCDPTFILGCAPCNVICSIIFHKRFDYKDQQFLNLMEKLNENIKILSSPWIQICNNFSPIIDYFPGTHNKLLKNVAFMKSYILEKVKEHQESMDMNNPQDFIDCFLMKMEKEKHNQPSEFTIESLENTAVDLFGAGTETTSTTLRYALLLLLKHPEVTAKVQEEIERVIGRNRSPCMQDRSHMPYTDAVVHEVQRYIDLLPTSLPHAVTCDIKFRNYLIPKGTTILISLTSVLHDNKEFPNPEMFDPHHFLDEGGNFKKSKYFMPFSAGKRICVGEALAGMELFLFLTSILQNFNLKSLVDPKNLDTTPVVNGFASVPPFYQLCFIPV
T4 sequence (P08684 whole entry): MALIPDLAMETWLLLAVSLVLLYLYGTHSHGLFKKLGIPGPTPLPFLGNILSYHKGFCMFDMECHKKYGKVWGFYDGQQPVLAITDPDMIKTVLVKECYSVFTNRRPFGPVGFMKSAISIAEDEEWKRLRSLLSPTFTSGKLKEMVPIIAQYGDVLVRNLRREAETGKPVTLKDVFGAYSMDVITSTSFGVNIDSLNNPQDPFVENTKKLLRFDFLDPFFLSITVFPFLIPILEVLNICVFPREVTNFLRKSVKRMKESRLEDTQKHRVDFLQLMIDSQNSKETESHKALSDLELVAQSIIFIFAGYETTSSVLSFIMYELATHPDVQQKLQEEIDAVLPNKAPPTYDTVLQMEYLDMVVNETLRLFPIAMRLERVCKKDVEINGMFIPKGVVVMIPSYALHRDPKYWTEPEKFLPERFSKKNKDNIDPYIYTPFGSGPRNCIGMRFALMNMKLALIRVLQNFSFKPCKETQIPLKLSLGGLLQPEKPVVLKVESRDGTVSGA

IC50 [1] [µM]	IC50 [2] [nM]	IC50 [3] [µM]	IC50 [4] [µM]	SMILES
3.7	470	> 50	> 50	CC1(c2cccc(-c3cc(Cl)cc(Cl)c3)c2)COCC(N)=N1 (stereo not shown) [Example 32, 5-(3′,5′-Dichloro-biphenyl-3-yl)-5-methyl-5,6-dihydro-2H-[1,4]oxazin-3-ylamine]
> 50		41	> 50	CC1(c2cc(-c3cncnc3)ccc2F)COCC(N)=N1 (stereo not shown) [Example 36, 5-(2-Fluoro-5-pyrimidin-5-yl-phenyl)-5-methyl-5,6-dihydro-2H-[1,4]oxazin-3-ylamine]
